{
  "source": "patent US6399614B1",
  "about": "“1-(N-phenylaminoalkyl)piperazine derivatives substituted at position 2 of the phenyl ring” (Recordati S.A. Chemical and Pharmaceutical Company, priority 1997, dated 2002)",
  "key": {"urinary bladder": {"tested_on": "urinary bladder", "experiment": "Cystometric parameters (cystometrogram) in conscious rats", "format": "in vivo, rat", "settings": "for BVC after treatment / MP after treatment: mean ± S.E.; for change in vivo at 0.3 mg/kg / change in vivo at 1 mg/kg: Rattus norvegicus, iv, 0.25 h, after vs before; for change in vivo at 0.3 mg/kg: i.v. 300 μg/kg; for change in vivo at 1 mg/kg: i.v. 1000 μg/kg", "description": "Male Sprague Dawley rats (Crl: CDo BR) weighing 250-350 g were used. The animals were housed with free access to food and water and maintained on a forced 12 h alternating light-dark cycle at 22-24° C. for at least one week, except during performance of the experiment. To quantify urodynamic parameters in conscious rats, cystometrographic studies were performed using procedures previously described (Guarneri et al., Pharmacol. Res., 24:175, 1991). […] An approximately 10 mm long midline incision was made in the shaved and cleaned abdominal wall. The urinary bladder was gently freed from adhering tissues, emptied, and then cannulated, via an incision at the dome, with a polyethylene cannula (Portex PP30), which was permanently sutured with silk thread. The cannula was exteriorized through a subcutaneous tunnel in the retroscapular area, where it was connected with a plastic adapter to avoid the risk of removal by the animal. For intravenous (i.v.) injection of test compounds, a PE 50 polyethylene tubing filled with physiological saline was inserted into the jugular vein and exteriorized in the retroscapular area. The rats were utilized exclusively one day after implantation. On the day of the experiment, the rats were placed in Bollman's cages, after a stabilization period of 20 min, and the free tip of the bladder catheter was connected through a T-shaped tube to a pressure transducer (Bentley T 800/Marb P 82) and to a peristaltic pump (Gilson minipuls 2) for a continuous infusion, at the constant rate of 0.1 ml/min, of saline solution into the urinary bladder. The intraluminal pressure signal during infusion was continuously recorded on a polygraph (Battaglia Rangoni KO 380 with ADCl/T amplifier).\nTwo urodynamic parameters were evaluated: bladder volume capacity (BVC) and micturition pressure (MP). BVC (in ml) is defined as the minimum volume infused after which detrusor contraction (followed by micturition) occurs. MP (in mm Hg) is defined as the maximal intravesical pressure induced by the contraction of detrusor during micturition. Basal BVC and MP values were calculated as the means of the first two recorded cystometrograms. At this point in the assay, the infusion was interrupted and the test compounds were administered. Fifteen minutes after intravenous administration two additional cystometrograms were recorded in each animal and the mean values of the two cystometrographic parameters were calculated. The statistical significance of the differences in urodynamic parameter values was evaluated by Student's t test for paired data."}, "[1]": {"tested_on": "rhythmic bladder voiding contractions", "experiment": "Volume-induced rhythmic bladder voiding contractions in anaesthetized rats", "format": "in vivo, rat", "settings": "Rattus norvegicus, intravenous; for ED (10 min disappearance of contractions): extrapolated dose inducing 10 min of disappearance of the contractions, anaesthetized rats, read-out: ED10 min; for ED50: extrapolated dose inducing a reduction of the number of contractions >30% in 50% of treated rats, read-out: ED50 (frequency)", "description": "Female Sprague Dawley rats weighing 225-275 g (Crl: CDo BR, Charles River Italia) were used. The animals were housed with free access to food and water and were maintained on a forced 12 h alternating light-dark cycle at 22-24° C. for at least one week, except during the experiment. The activity on the rhythmic bladder voiding contractions was evaluated according to the method of Dray (J. Pharmacol. Methods, 13:157, 1985), with some modifications as in Guarneri (Pharmacol. Res., 27:173, 1993). Briefly, rats were anesthetized by subcutaneous injection of 1.25 g/kg (5 ml/kg) urethane, after which the urinary bladder was catheterized via the urethra using PE 50 polyethylene tubing filled with physiological saline. The catheter was tied in place with a ligature around the external urethral orifice and was connected with conventional pressure transducers (Statham P23 ID/P23 XL). […] The bladder was then filled via the recording catheter by incremental volumes of warm (37° C.) saline until reflex bladder voiding contractions occurred (usually 0.8-1.5 ml). For intravenous (i.v.) injection of bioactive compounds, PE 50 polyethylene tubing filled with physiological saline was inserted into the jugular vein. From the cystometrogram, the number of contractions recorded 15 min before (basal values) and after treatment, as well as the mean amplitude of these contractions (mean height of the peaks in mmHg) was evaluated.\nSince most compounds produced an effect that was relatively rapid in onset and led to a complete cessation of bladder contractions, bioactivity was conveniently estimated by measuring the duration of bladder quiescence (i.e., the duration of time during which no contractions occurred). The number of animals tested showing a reduction in the number of contractions >30% of that observed in the basal period was also recorded.\nAlso computed in this manner were extrapolated doses which induced a reduction of the number of contractions of greater than 30% in 50% of treated rats (ED50, frequency) by the method of Bliss (Bliss C. I., Quart. J. Pharm. Pharmacol. 11, 192-216, 1938). After the suppressive effects of drug injection wore off, the height of the contractile peaks was compared with the height of the peaks previously recorded after the control intravenous administration of vehicle. The potency of the tested compounds (ED50 value: the extrapolated doses inducing a 30% reduction of amplitude of the contractions in 50% of treated rats) was evaluated on a quantal basis by the method of Bliss (Bliss C. I., Quart. J. Pharm. Pharmacol. 11, 192-216, 1938)."}, "[2]": {"target": "T1, human 5-HT1A serotonergic receptor (Homo sapiens, UniProt P08908)", "T1 construct": "expressed in transfected cells; host or cells: HeLa", "T1 sequence (P08908 1-422)": "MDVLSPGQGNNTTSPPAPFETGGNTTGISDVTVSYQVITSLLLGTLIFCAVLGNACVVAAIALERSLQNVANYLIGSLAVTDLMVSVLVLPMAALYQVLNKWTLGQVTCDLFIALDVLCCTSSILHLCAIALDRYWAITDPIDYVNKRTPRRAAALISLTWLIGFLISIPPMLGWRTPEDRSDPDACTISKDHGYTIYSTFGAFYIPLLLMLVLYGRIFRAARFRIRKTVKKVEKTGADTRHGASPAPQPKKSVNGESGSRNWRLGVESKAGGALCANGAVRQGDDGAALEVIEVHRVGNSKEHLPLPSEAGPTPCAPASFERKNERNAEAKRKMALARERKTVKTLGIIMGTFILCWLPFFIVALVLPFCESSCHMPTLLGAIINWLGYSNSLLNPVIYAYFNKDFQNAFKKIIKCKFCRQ", "experiment": "Radioreceptor binding, recombinant human 5-HT1A receptors ([3H]8-OH-DPAT, HeLa membranes)", "settings": "recombinant human receptor, [3H]8-OH-DPAT; Ki from IC50 by Cheng & Prusoff; read-out: Binding affinity for the 5-HT1A receptor, Ki", "how_it_was_run": "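Membranes from HeLa cells stably transfected with human 5-HT1A clone G-21 incubated 30 min at 30° C with 0.2-1 nM [3H]8-OH-DPAT in 50 mM Tris HCl pH 7.4, 2.5 mM MgCl2, 10 μM pargiline; nonspecific binding with 10 μM 5-HT. Filtration assay; IC50 from curve fitting converted to Ki by Cheng-Prusoff.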"}},
  "note": "pKi: −log10 of the molar value. Where two headings read alike, the source gives them in different places.",
  "data": [
    {"compound": "O=C(C1CCCCC1)N(CCN1CCN(c2cccc3[nH]ccc23)CC1)c1ccccc1OC(F)(F)F", "note": "[Example 51, 1-[N-cyclohexylcarbonyl-N-(2-trifluoromethoxyphenyl)-2-aminoethyl]-4-(4-indolyl)piperazine]", "values": [
      {"measurement": "BVC after treatment", "setting": "urinary bladder; 15 min after i.v. 300 μg/kg", "value": "0.84 ± 0.14", "unit": "mL"},
      {"measurement": "MP after treatment", "setting": "urinary bladder; 15 min after i.v. 300 μg/kg", "value": "73.7 ± 6.1", "unit": "mmHg"},
      {"measurement": "BVC after treatment", "setting": "urinary bladder; 15 min after i.v. 1000 μg/kg", "value": "1.08 ± 0.09", "unit": "mL"},
      {"measurement": "MP after treatment", "setting": "urinary bladder; 15 min after i.v. 1000 μg/kg", "value": "67.9 ± 5.6", "unit": "mmHg"},
      {"measurement": "change in vivo at 0.3 mg/kg", "setting": "urinary bladder; read-out: BVC % of change", "value": 27.7, "unit": "%"},
      {"measurement": "change in vivo at 0.3 mg/kg", "setting": "urinary bladder; read-out: MP % of change", "value": -7.9, "unit": "%"},
      {"measurement": "change in vivo at 1 mg/kg", "setting": "urinary bladder; read-out: BVC % of change", "value": 36.5, "unit": "%"},
      {"measurement": "change in vivo at 1 mg/kg", "setting": "urinary bladder; read-out: MP % of change", "value": -13.3, "unit": "%"},
      {"measurement": "ED (10 min disappearance of contractions)", "setting": "[1]", "value": 0.276, "unit": "mg/kg"},
      {"measurement": "ED50", "setting": "[1]", "value": 0.2, "unit": "mg/kg"},
      {"measurement": "pKi", "setting": "[2]", "value": 9.62}
    ]},
    {"compound": "COc1cc(N)ccc1N1CCN(CCN(C(=O)C2CCCCC2)c2ccccc2OC(F)(F)F)CC1", "note": "[Example 56, 1-[N-cyclohexylcarbonyl-N-(2-trifluoromethoxyphenyl)-2-aminoethyl]-4-(4-amino-2-methoxyphenyl)piperazine]", "values": [
      {"measurement": "ED (10 min disappearance of contractions)", "setting": "[1]", "value": 0.061, "unit": "mg/kg"},
      {"measurement": "ED50", "setting": "[1]", "value": 0.021, "unit": "mg/kg"},
      {"measurement": "pKi", "setting": "[2]", "value": 8.67}
    ]},
    {"compound": "COc1cc(NC(C)=O)ccc1N1CCN(CCN(C(=O)C2CCCCC2)c2ccccc2OC(F)(F)F)CC1", "note": "[Example 57, 1-[N-cyclohexylcarbonyl-N-(2-trifluoromethoxyphenyl)-2-aminoethyl]-4-(4-acetylamino-2-methoxyphenyl)piperazine]", "values": [
      {"measurement": "ED (10 min disappearance of contractions)", "setting": "[1]", "value": 0.254, "unit": "mg/kg"},
      {"measurement": "ED50", "setting": "[1]", "value": 0.252, "unit": "mg/kg"},
      {"measurement": "pKi", "setting": "[2]", "value": 9.13}
    ]},
    {"compound": "COc1cc(N)ccc1N1CCN(CCN(C(=O)C2CCCCC2)c2ccccc2OCC(F)(F)F)CC1", "note": "[Example 66]", "values": [
      {"measurement": "ED (10 min disappearance of contractions)", "setting": "[1]", "value": 0.167, "unit": "mg/kg"},
      {"measurement": "ED50", "setting": "[1]", "value": 0.058, "unit": "mg/kg"},
      {"measurement": "pKi", "setting": "[2]", "value": 9.12}
    ]},
    {"compound": "O=C(C1CCCCC1)N(CCN1CCN(c2cccc3[nH]ccc23)CC1)c1ccccc1OCC(F)(F)F", "note": "[Example 69, 1-[N-cyclohexylcarbonyl-N-[2-(2,2,2-trifluoroethoxyphenyl)]-2-aminoethyl]-4-(4-indolyl)piperazine]", "values": [
      {"measurement": "ED (10 min disappearance of contractions)", "setting": "[1]", "value": 0.06, "unit": "mg/kg"},
      {"measurement": "ED50", "setting": "[1]", "value": 0.014, "unit": "mg/kg"},
      {"measurement": "pKi", "setting": "[2]", "value": 9.49}
    ]}
  ]
}
